pIC50, pKi: −log10 of the molar value. Where two headings read alike, the source gives them in different places.
What was measured:
[1] = target: IMPDH human type II (Homo sapiens, UniProt P12268); assay: biochemical; settings: read-out: Ki
[2] = test system: human PBMC B cells; assay: cells; assay type: cell-based; settings: read-out: B-cells (IC50)
[3] = test system: human PBMC T cells; assay: cells; assay type: cell-based; settings: read-out: T-cells (IC50)

Row | Structure (SMILES) | pKi [1] | pIC50 ([2]; Homo sapiens, 72 h) | pIC50 ([3]; Homo sapiens, 72 h) | pIC50 [2] | pIC50 [3]
1 | CCCC(CC#N)OC(=O)NCc1cccc(NC(=O)Nc2ccc(-c3cnco3)c(OC)c2)c1 (stereo not drawn) [Compound 32] | > 8.00 | > 7.00 | 6.00 to 7.00 |  | 
2 | CCCN(CCC(OC(=O)NCc1cccc(NC(=O)Nc2ccc(-c3cnco3)c(OC)c2)c1)c1ccccc1)CC(C)C (stereo not drawn) [Compound 120] | < 7.30 | < 6.00 | < 6.00 |  | 
3 | CCN(CC)CC(CO)OC(=O)NCc1cccc(NC(=O)Nc2ccc(-c3cnco3)c(OC)c2)c1 (stereo not drawn) [Compound 80] | > 8.00 | 6.00 to 7.00 | 6.00 to 7.00 |  | 
4 | COc1cc(NC(=O)Nc2cccc(CNC(=O)OC[C@@H](CC#N)NC(=O)OC(C)(C)C)c2)ccc1-c1cnco1 [Compound 12] | > 8.00 | 6.00 to 7.00 | 6.00 to 7.00 |  | 
5 | COc1cc(NC(=O)Nc2cccc(CNC(=O)OCCCOP(=O)(O)O)c2)ccc1-c1cnco1 [Compound 97] | 7.30 to 8.00 | > 7.00 | > 7.00 |  | 
6 | COc1cc(NC(=O)Nc2cccc(CNC(=O)OC(CN(CC(C)C)CC3CC3)c3ccccc3)c2)ccc1-c1cnco1 (stereo not drawn) [Compound 117] | < 7.30 | < 6.00 | < 6.00 |  | 
7 | CC[C@@H](CCO)OC(=O)NCc1cccc(NC(=O)Nc2ccc(-c3cnco3)c(OC)c2)c1 [Compound 69] | > 8.00 |  |  | 6.00 to 7.00 | 6.00 to 7.00
8 | CCN(CCC(OC(=O)NCc1cccc(NC(=O)Nc2ccc(-c3cnco3)c(OC)c2)c1)c1ccccc1)CC(C)C (stereo not drawn) [Compound 125] | < 7.30 | 6.00 to 7.00 | 6.00 to 7.00 |  | 
9 | COc1cc(NC(=O)Nc2cccc(CNC(=O)O[C@@H](C)CN(C)Cc3ccco3)c2)ccc1-c1cnco1 [Compound 30] | > 8.00 | 6.00 to 7.00 | < 6.00 |  | 
10 | CNCCC(OC(=O)NCc1cccc(NC(=O)Nc2ccc(-c3cnco3)c(OC)c2)c1)c1ccccc1 (stereo not drawn) [Compound 34] | > 8.00 | 6.00 to 7.00 | < 6.00 |  | 
11 | CC[C@H](CCN(CC)CC)OC(=O)NCc1cccc(NC(=O)Nc2ccc(-c3cnco3)c(OC)c2)c1 [Compound 92] | > 8.00 | 6.00 to 7.00 | 6.00 to 7.00 |  | 
12 | CCCN(CCC(OC(=O)NCc1cccc(NC(=O)Nc2ccc(-c3cnco3)c(OC)c2)c1)c1ccccc1)CC1CC1 (stereo not drawn) [Compound 122] | < 7.30 | < 6.00 | < 6.00 |  | 
13 | COc1cc(NC(=O)Nc2cccc(CNC(=O)O[C@H](CN(CC3CC3)C(C)C)c3ccccc3)c2)ccc1-c1cnco1 [Compound 110] | < 7.30 | > 7.00 | 6.00 to 7.00 |  | 
14 | COc1cc(NC(=O)Nc2cccc(CNC(=O)OC(CN(CC(C)C)CC(C)C)c3ccccc3)c2)ccc1-c1cnco1 (stereo not drawn) [Compound 116] | < 7.30 | < 6.00 | < 6.00 |  | 
15 | CCC(CC#N)OC(=O)NC(C)c1cccc(NC(=O)Nc2ccc(-c3cnco3)c(OC)c2)c1 (stereo not drawn) [Compound 163] | 7.30 to 8.00 | > 7.00 | > 7.00 |  | 
16 | CCC(CCC#N)COC(=O)NCc1cccc(NC(=O)Nc2ccc(-c3cnco3)c(OC)c2)c1 (stereo not drawn) [Compound 8] | > 8.00 | 6.00 to 7.00 | 6.00 to 7.00 |  | 
